Results on 5 molecules are retold here after ChEMBL document CHEMBL1201861, “Genomics of Drug Sensitity in Cancer screening data, Wellcome Trust Sanger Institute”.

Usually pIC50 stands for the negative decadic logarithm of the IC50, by convention in mol/L. A low value points to a large IC50.

SMILES strings stand for the structures. pIC50: −log10 of the molar value.

What all share (type): functional, cell-based
Assay [1] relates to H9. Briefly: cells. As to conditions: Homo sapiens.
Description: SANGER: Inhibition of human H9 cell growth in a cell viability assay.
The test system of assay [2] is ZR-75-30. Briefly: cells. Particulars: Homo sapiens.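 Also: growth inhibition of ZR-75-30 cells, measured with a cell viability readout.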
Description: SANGER: Inhibition of human ZR-75-30 cell growth in a cell viability assay.
Assay [3] deals with OC-314. The assay can be described thus: cells. Particulars: Homo sapiens.
Description: SANGER: Inhibition of human OC-314 cell growth in a cell viability assay.
For assay [4], the system named is D-423MG. The assay can be described thus: cells. As to conditions: Homo sapiens.
Description: SANGER: Inhibition of human D-423MG cell growth in a cell viability assay.
Assay [5] has as its system NCI-H1048. Briefly: cells. Particulars: Homo sapiens.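 Also: growth inhibition of human NCI-H1048 cells, read out with a cell viability assay.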
Description: SANGER: Inhibition of human NCI-H1048 cell growth in a cell viability assay.
The test system of assay [6] is SW 1116. Briefly: cells. Particulars: Homo sapiens.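 Also: growth inhibition of SW1116 cells, read out with a cell viability assay.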
Description: SANGER: Inhibition of human SW1116 cell growth in a cell viability assay.
The subject of assay [7] is EPLC-272H. Briefly: cells. As to conditions: Homo sapiens.
Description: SANGER: Inhibition of human EPLC-272H cell growth in a cell viability assay.
The test system of assay [8] is NCI-H1975. The assay can be described thus: cells. Particulars: Homo sapiens.
Description: SANGER: Inhibition of human NCI-H1975 cell growth in a cell viability assay.
Assay [9] has as its system A549. Briefly: cells. Particulars: Homo sapiens.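 Also: growth inhibition of A549 cells, read out with a cell viability assay.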
Description: SANGER: Inhibition of human A549 cell growth in a cell viability assay.
The test system of assay [10] is SW900. Briefly: cells. Particulars: Homo sapiens.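 Also: IC50 is the concentration that inhibits SW900 cell growth, measured by a cell viability assay.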
Description: SANGER: Inhibition of human SW900 cell growth in a cell viability assay.
The subject of assay [11] is BALL-1. Briefly: cells. Particulars: Homo sapiens.
Description: SANGER: Inhibition of human BALL-1 cell growth in a cell viability assay.
Assay [12] deals with D-566MG. The assay can be described thus: cells. Particulars: Homo sapiens.
In assay [13] the test system is TI-73. Briefly: cells. As to conditions: Homo sapiens.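 Also: cell viability assay measuring how much compounds suppress growth of the cultured cell line.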
Description: SANGER: Inhibition of human TI-73 cell growth in a cell viability assay.
In assay [14] the test system is KNS-62. The assay can be described thus: cells. As to conditions: Homo sapiens.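 Also: inhibition of cell growth, read out with a cell viability assay.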
Description: SANGER: Inhibition of human KNS-62 cell growth in a cell viability assay.
The test system of assay [15] is NCI-H2029. Briefly: cells. As to conditions: Homo sapiens.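 Also: Read-out is a viability assay on the cultured cells, and IC50 is the concentration that suppresses cell growth.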
Description: SANGER: Inhibition of human NCI-H2029 cell growth in a cell viability assay.
Assay [16] has as its system YH-13. Briefly: cells. As to conditions: Homo sapiens.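 Also: cell viability readout of growth suppression in the human YH-13 cell line.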
Description: SANGER: Inhibition of human YH-13 cell growth in a cell viability assay.
The test system of assay [17] is BT-549. The assay can be described thus: cells. Particulars: Homo sapiens.
Description: SANGER: Inhibition of human BT-549 cell growth in a cell viability assay.
Assay [18] deals with H-EMC-SS. Briefly: cells. As to conditions: Homo sapiens.
Description: SANGER: Inhibition of human H-EMC-SS cell growth in a cell viability assay.
Assay [19] has as its system CRO-AP2. The assay can be described thus: SANGER: Inhibition of human CRO-AP2 cell growth in a cell viability assay.
The subject of assay [20] is NCI-H2107. Briefly: SANGER: Inhibition of human NCI-H2107 cell growth in a cell viability assay.
In assay [21] the test system is NCI-H128. Briefly: SANGER: Inhibition of human NCI-H128 cell growth in a cell viability assay. Particulars: Homo sapiens, NCI-H128.
The subject of assay [22] is EW-12. The assay can be described thus: SANGER: Inhibition of human EW-12 cell growth in a cell viability assay. Particulars: Homo sapiens, EW-12.
The subject of assay [23] is NCI-H2227. The assay can be described thus: cells. As to conditions: Homo sapiens.
Description: SANGER: Inhibition of human NCI-H2227 cell growth in a cell viability assay.

As to `CN(NC(=O)CC(=O)NN(C)C(=S)c1ccccc1)C(=S)c1ccccc1` [ELESCLOMOL], the pIC50 in assay [1] is 7.24; in [2], 7.32; in assay [3], 7.48; in assay [4] it was 7.92; in assay [5] it was 7.74; in assay [6], under 6.70. Besides, the pIC50 in [7] was 7.54; in assay [8], under 6.70; in assay [9] it was 7.71; in assay [10], 7.21; in [11], under 6.70; in [12], 7.82. Moreover, the pIC50 is 7.82 in [13]; 8.02 in assay [14]; under 6.70 in assay [15]; 7.62 in [16]; 7.80 in [17]; 8.43 in [18].

Regarding `CC1=C(/C=C/C(C)=C/C=C/C(C)=C/C(=O)O)C(C)(C)CCC1` [TRETINOIN], the pIC50 in [2], in [3], in assay [4], in assay [5], in assay [6] and in assay [7] was under 5.00 in each case. In addition, the pIC50 in assay [8], in assay [9], in assay [10], in [11], in assay [12] and in assay [13] was under 5.00 throughout. Also, the pIC50 in assay [14], in assay [15], in [16], in [17] and in [18] was under 5.00 throughout.

`Cc1ccc(NC(=O)c2ccc(CN3CCN(C)CC3)cc2)cc1Nc1nccc(-c2cccnc2)n1` [IMATINIB]: the negative logarithm of the IC50 (pIC50) in [19], in assay [20], in assay [21] and in assay [22] was under 5.70 throughout.

Regarding `NC(=O)c1ccc(N(C(N)=O)c2c(F)cccc2F)nc1-c1ccc(F)cc1F` [VX-702], the pIC50 in [2], in assay [3], in assay [4], in assay [5], in [6] and in assay [7] was under 5.70 in each case. Further, the pIC50 in assay [8], in assay [9], in assay [10], in [11], in [12] and in assay [13] was under 5.70 each time. Moreover, the pIC50 in assay [14], in assay [15], in [16], in assay [17] and in assay [18] was under 5.70 each time.

In the case of `Nc1ccccc1NC(=O)c1ccc(CNC(=O)OCc2cccnc2)cc1` [ENTINOSTAT], the pIC50 in assay [19] was 6.77; in [23], 5.52; in assay [20], 5.87; in assay [21] it was under 5.30; in assay [22], under 5.30.
